Measured values: US20110319409A1, “7-AZA-QUINAZOLINE PDE10 INHIBITORS” (priority 2010, published 2011)

Target: T1, human PDE10A2 (Homo sapiens, UniProt Q9Y233)
T1 construct: made in house; host or cells: AD293 cells, transiently transfected; cytoplasmic fraction of the lysate used as enzyme
Assay: PDE10 fluorescence polarization (IMAP FP) assay
Assay type: biochemical
Settings: human PDE10 enzyme, FAM-labeled cAMP substrate 50 nM
Protocol: The activity of the compounds in accordance with the present invention as PDE10 inhibitors may be readily determined without undue experimentation using a fluorescence polarization (FP) methodology well known in the art (Huang, W., et al., J. Biomol Screen, 2002, 7: 215).
In a typical experiment the PDE10 inhibitory activity of the compounds of the present invention is determined in accordance with the following experimental method. PDE10A2 is amplified from human fetal brain cDNA (Clontech, Mountain View, Calif.) using a forward primer corresponding to nucleotides 56-77 of human PDE10A2 (Accession No. AF127480, Genbank Identifier 4894716), containing a Kozak consensus sequence, and a reverse primer Corresponding to nucleotides 2406-2413 of human PDE10A2 (Accession No. AF127480, Genbank Identifier 4894716). Amplification with Easy-A polymerase (Stratagene, La Jolla, Calif.) is carried out at 95° C. for 2 minutes followed by thirty three cycles of 95° C. for 40 seconds, 55° C. for 30 seconds, and 72° C. for 2 minutes 48 seconds. Final extension is at 72° C. for 7 minutes. The PCR product is TA cloned into pcDNA3.2-TOPO (Invitrogen, Carlsbad, Calif.) according to standard protocol.
AD293 cells with 70-80% confluency are transiently transfected with human PDE10A2/pcDNA3.2-TOPO using Lipofectamine 2000 according to manufacturer specifications (Invitrogen, Carlsbad, Calif.). Cells are harvested 48 hours post-transfection and lysed by sonication (setting 3, 10×5 sec pulses) in a buffer containing 20 mM HEPES, 1 mM EDTA and protease inhibitor cocktail (Roche). Lysate is collected by centrifugation at 75,000×g for 20 minutes. Supernatant containing the cytoplasmic fraction is used for evaluation of PDE10A2 activity.
The fluorescence polarization assay for cyclic nucleotide phosphodiesterases is performed using an IMAP® FP kit supplied by Molecular Devices, Sunnyvale, Calif. (product #R8139). IMAP® technology has been applied previously to phosphodiesterase assays (Huang, W., et al., J. Biomol Screen, 2002, 7: 215). Assays are performed at room temperature in 384-well microtiter plates with an incubation volume of 20.2 μL. Solutions of test compounds are prepared in DMSO and serially diluted with DMSO to yield 8 μL of each of 10 solutions differing by 3-fold in concentration, at 32 serial dilutions per plate. 100% inhibition is determined using a known PDE10 inhibitor, which can be any compound that is present at 5,000 times its Ki value in the assay described as follows, such as papaverine (see Siuciak, et al. Neuropharmacology (2006) 51:386-396; Becker, et al. Behav Brain Res (2008) 186(2):155-60; Threlfell, et al., J Pharmacol Exp Ther (2009) 328(3):785-795), 2-{4-[pyridin-4-yl-1-(2,2,2-trifluoroethyl)-1H-pyrazol-3-yl]phenoxymethyl}quinoline succinic acid or 2-[4-(1-methyl-4-pyridin-4-yl-1H-pyrazol-3-yl)-phenoxymethyl]quinoline succinic acid (see Schmidt, et al. J Pharmacol Exp Ther (2008) 325:681-690; Threlfell, et al., J Pharmacol Exp Ther (2009) 328(3): 785-795). 0% of inhibition is determined by using DMSO (1% final concentrations).
A Labcyte Echo 555 (Labcyte, Sunnyvale, Calif.) is used to dispense 200 nL from each well of the titration plate to the 384 well assay plate. A solution of enzyme (1/1600 dilution from aliquots; sufficient to produce 20% substrate conversion) and a separate solution of FAM-labeled cAMP PDE from Molecular Devices (product # R7506), at a final concentration of 50 nM are made in the assay buffer (10 mM Tris HCl, pH 7.2, 10 mM MgCl2, 0.05% NaN3 0.01% Tween-20, and 1 mM DTT). The enzyme and the substrate are then added to the assay plates in two consecutive additions of 10 μL, and then shaken to mix. The reaction is allowed to proceed at room temperature for 30 minutes. A binding solution is then made from the kit components, comprised of 80% Solution A, 20% Solution B and binding reagent at a volume of 1/600 the total binding solution. […]

T1 sequence (Q9Y233 267-1055): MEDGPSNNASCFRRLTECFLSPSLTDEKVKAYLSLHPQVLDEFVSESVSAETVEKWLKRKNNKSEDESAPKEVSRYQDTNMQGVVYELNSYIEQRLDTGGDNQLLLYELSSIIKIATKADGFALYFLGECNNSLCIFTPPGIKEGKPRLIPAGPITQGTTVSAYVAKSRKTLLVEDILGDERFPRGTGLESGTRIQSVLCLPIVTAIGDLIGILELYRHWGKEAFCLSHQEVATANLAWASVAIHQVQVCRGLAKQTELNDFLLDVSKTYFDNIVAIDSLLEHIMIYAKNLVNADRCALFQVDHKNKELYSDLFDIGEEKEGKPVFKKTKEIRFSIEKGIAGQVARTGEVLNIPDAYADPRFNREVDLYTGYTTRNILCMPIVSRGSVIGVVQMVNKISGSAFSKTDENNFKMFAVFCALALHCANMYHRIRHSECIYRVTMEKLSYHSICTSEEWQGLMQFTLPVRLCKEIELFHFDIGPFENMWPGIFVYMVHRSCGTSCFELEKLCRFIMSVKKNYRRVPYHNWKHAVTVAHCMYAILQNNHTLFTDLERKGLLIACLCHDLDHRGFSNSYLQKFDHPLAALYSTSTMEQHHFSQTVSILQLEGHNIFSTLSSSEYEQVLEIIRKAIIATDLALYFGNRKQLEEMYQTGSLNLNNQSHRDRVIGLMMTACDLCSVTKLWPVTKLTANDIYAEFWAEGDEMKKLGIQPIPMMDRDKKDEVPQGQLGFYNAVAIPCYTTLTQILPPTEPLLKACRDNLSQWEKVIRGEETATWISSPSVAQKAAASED

| SMILES | Ki [nM] |
| --- | --- |
| Cc1ncccc1-c1cccc(-c2nc(NCc3ccncc3)c3ccncc3n2)c1 [1-1, 2-[3-(2-Methylpyridin-3-yl)phenyl]-N-(pyridin-4-ylmethyl)pyrido[3,4-d]pyrimidin-4-amine] | 1.4 |
| COc1ncccc1-c1cccc(-c2nc(NCCO)c3ccncc3n2)c1 [1-3, 2-({2-[3-(2-Methoxypyridin-3-yl)phenyl]pyrido[3,4-d]pyrimidin-4-yl}amino)ethanol] | 2.7 |
| COc1ncccc1-c1cccc(-c2nc(NCc3cncnc3)c3ccncc3n2)c1 [1-4, 2-[3-(2-Methoxypyridin-3-yl)phenyl]-N-(pyrimidin-5-ylmethyl)pyrido[3,4-d]pyrimidin-4-amine] | 0.41 |
| c1cc(-c2nc(NCCN3CCOCC3)c3ccncc3n2)cc(-c2cncc3ccccc23)c1 [1-7] | 0.55 |
| O=S(=O)(c1cccc2c1CN(c1nc(NCc3ccncc3)c3ccncc3n1)CC2)N1CCOCC1 [1-8, 2-[8-(Morpholin-4-ylsulfonyl)-3,4-dihydroisoquinolin-2(1H)-yl]-N-(pyridin-4-ylmethyl)pyrido[3,4-d]pyrimidin-4-amine] | 0.23 |
| c1cc(-c2nc(OCc3ccncc3)c3ccncc3n2)cc(-c2ncco2)c1 [1-9, 2-[3-(1,3-Oxazol-2-yl)phenyl]-4-(pyridin-4-ylmethoxy)pyrido[3,4-d]pyrimidine] | 2.7 |
| COc1ncccc1-c1cncc(-c2nc(NCc3cncnc3)c3ccncc3n2)c1 [1-11, 2-(2′-methoxy-3,3′-bipyridin-5-yl)-N-(pyrimidin-5-ylmethyl)pyrido[3,4-d]pyrimidin-4-amine] | 0.84 |
| CC(C)OC(=O)c1cccc(-c2nc(NCc3ccncc3)c3ccncc3n2)c1 [1-13, isopropyl 3-{4-[(pyridin-4-ylmethyl)amino]pyrido[3,4-d]pyrimidin-2-yl}benzoate] | 1.4 |
| COc1ncccc1-c1cccc(-c2nc(NCc3ccncc3)c3ccncc3n2)c1 [A-6, 2-{3-[2-(Methyloxy)pyridin-3-yl]phenyl}-N-(pyridin-4-ylmethyl)pyrido[3, d]pyrimidin-4-amine] | 0.4 |
| c1ccc2c(c1)CCN(c1nc(NCc3ccncc3)c3ccncc3n1)C2 [B-4, 2-(3,4-Dihydroisoquinolin-2(1H)-yl)-N-(pyridin-4-ylmethyl)pyrido[3,4-d]pyrimidin-4-amine] | 5.6 |
| C(=C\c1nc(NCc2cncnc2)c2ccncc2n1)/c1ccccc1 [C-2, 2-[(E)-2-Phenylvinyl]-N-(pyrimidin-5-ylmethyl)pyrido[3,4-d]pyrimidin-4-amine] | 131 |
